As a reminder, the IC50 is the concentration that inhibits the measured activity by half. Lower therefore signals higher potency.

From patent US9776972B2, “Pyrazole derivatives as arginine methyltransferase inhibitors and uses thereof” (priority 2013, dated 2017) come the findings set out here.

One test concerns the target T1, human PRMT1 (Homo sapiens, UniProt Q99873).
T1 construct: GST-tagged PRMT1; made in house; host or cells: High Five insect cells (baculovirus)
As to the kind of experiment: PRMT1 Biochemical Assay (3H-SAM Flashplate, peptide substrate). As to conditions: single experiment or average of multiple experiments. The gist of the method: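 GST-tagged PRMT1 from baculovirus-infected cells, preincubated with compounds 30 min at room temperature in 20 mM Bicine pH 7.6, 1 mM TCEP, 0.005% BSG, 0.002% Tween 20. Reaction started with ³H-SAM plus biotinylated peptide, stopped with 300 µM cold SAM.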

The target in a further test is T2, human PRMT6 (Homo sapiens, UniProt Q96LA8).
T2 construct: Flag-PRMT6-His; made in house; host or cells: HEK 293F cells (BacMam baculovirus)
As to the kind of experiment: PRMT6 Biochemical Assay (3H-SAM Flashplate, peptide substrate). The note with it: Biochemical IC50 PRMT6, single experiment or average of multiple experiments. The gist of the method:
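Methylation of a biotin-tagged H4 (36-50) peptide by ³H-SAM was quantified by streptavidin Flashplate capture and scintillation counts (dpm/cpm). Before SAM/peptide addition, Flag-PRMT6-His was preincubated with compound for 30 min at room temperature in Bicine buffer, pH 7.6.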

T1 sequence (Q99873 with tags, fused parts or gaps): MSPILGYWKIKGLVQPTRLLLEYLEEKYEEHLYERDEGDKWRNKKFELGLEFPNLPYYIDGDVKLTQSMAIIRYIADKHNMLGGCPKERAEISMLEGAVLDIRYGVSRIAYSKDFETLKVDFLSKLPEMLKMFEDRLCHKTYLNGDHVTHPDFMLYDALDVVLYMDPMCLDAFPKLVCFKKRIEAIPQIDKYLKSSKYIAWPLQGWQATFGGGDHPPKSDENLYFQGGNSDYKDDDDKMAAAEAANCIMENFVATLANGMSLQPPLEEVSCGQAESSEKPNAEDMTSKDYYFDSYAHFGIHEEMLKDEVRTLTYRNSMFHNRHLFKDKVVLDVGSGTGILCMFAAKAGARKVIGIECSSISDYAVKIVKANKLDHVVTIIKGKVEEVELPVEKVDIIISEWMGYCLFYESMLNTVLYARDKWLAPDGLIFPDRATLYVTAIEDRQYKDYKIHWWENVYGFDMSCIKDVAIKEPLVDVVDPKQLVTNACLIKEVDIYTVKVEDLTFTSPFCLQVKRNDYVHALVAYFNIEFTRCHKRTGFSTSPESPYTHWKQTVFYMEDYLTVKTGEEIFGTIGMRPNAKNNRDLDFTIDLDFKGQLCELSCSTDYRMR
T2 sequence (Q96LA8 with tags, fused parts or gaps): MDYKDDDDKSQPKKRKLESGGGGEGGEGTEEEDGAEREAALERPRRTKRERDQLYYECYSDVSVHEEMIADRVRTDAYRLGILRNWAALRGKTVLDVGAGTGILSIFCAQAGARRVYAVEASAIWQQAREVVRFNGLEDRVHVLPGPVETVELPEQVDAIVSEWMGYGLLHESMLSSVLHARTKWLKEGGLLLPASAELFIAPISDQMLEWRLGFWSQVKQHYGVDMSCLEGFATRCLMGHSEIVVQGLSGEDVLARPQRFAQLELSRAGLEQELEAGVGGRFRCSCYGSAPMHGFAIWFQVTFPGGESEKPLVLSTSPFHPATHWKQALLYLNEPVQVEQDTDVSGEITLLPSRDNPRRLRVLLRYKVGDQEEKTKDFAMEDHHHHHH

Consider `CNCCN(C)Cc1c[nH]nc1-c1ccc(OC2CCOCC2)cc1` [Compound 175], for which the results for the IC50 on human PRMT1 and on human PRMT6 were 10.5 nM and 12.5 nM, respectively.

As for `CC(C)Cc1ccc(-c2c[nH]nc2CN(C)CCN)cc1` [Compound 170], the IC50 against human PRMT1 turned out to be 11.4 nM; at human PRMT6 it was 59.3 nM.

Consider `CN(CCN)Cc1c[nH]nc1-c1ccc(Oc2ccccc2)c(C#N)c1` [Compound 202], for which the results for the IC50 against human PRMT1 and against human PRMT6 were 4.27 nM and 2.9 nM, respectively.

On to `C=CCn1cc(CN(C)CCNC)c(-c2ccc(OC(C)C)cc2)n1` [Compound 218], for which the IC50 on human PRMT1 was determined as 58.4 nM; at human PRMT6 it was 132 nM.

For the compound `COc1ccc(-c2n[nH]cc2CN(C)CCN)c(C(F)(F)F)c1` [Compound 154], the IC50 is 660 nM against human PRMT1 and 375 nM at human PRMT6.

For the compound `CCNC(=O)c1cccc(-c2n[nH]cc2CN(C)CCN)c1` [Compound 197], the IC50 against human PRMT1 worked out at 678 nM; against human PRMT6 it was 67.2 nM.

Regarding `CN(CCN)Cc1c[nH]nc1-c1cccc(N(C)C)c1` [Compound 149], the IC50 at human PRMT1 was found to be 61 nM; at human PRMT6 it was 62.5 nM.

On to `CNCCN(C)Cc1cn(Cc2ccccc2)nc1-c1ccc(OC(C)C)cc1` [Compound 217], for which the IC50 against human PRMT1 was 18.7 nM; against human PRMT6, 42.1 nM.

`CNCCN(C)Cc1cnn(C(C)C)c1-c1ccc(F)cc1` [Compound 16]: the IC50 on human PRMT1 worked out at 2070 nM; against human PRMT6, 57.9 nM.

As for `Cc1ccc(F)cc1-c1n[nH]cc1CN(C)CCN` [Compound 159], the IC50 stood at 71.9 nM against human PRMT1 and 27.3 nM against human PRMT6.

As to `CN(CCN)Cc1c[nH]nc1-c1ccc(OC2CCOCC2)cc1` [Compound 178], the IC50 against human PRMT1 was 8.28 nM; on human PRMT6, 7.22 nM.

As for `CCN(C)C(=O)c1ccc(-c2n[nH]cc2CN(C)CCN)cc1` [Compound 163], the figures for the IC50 on human PRMT1 and at human PRMT6 were 115 nM and 62.6 nM, respectively.

As for `CNCCN(C)Cc1n[nH]cc1-c1ccc(Oc2ccccc2)cc1` [Compound 204], the IC50 against human PRMT1 amounted to 3.15 nM; against human PRMT6 it was 1.14 nM.

Consider `COc1cc(F)ccc1-c1n[nH]cc1CN(C)CCN` [Compound 151], for which the IC50 on human PRMT1 stood at 122 nM; on human PRMT6, 112 nM.

Regarding `CNC(=O)c1cc(-c2n[nH]cc2CN(C)CCN)ccc1Oc1ccccc1` [Compound 227], the values for the IC50 against human PRMT1 and against human PRMT6 were 24.3 nM and 11.5 nM, respectively.

For `CN(CCN)Cc1c[nH]nc1-c1ccc(OCCO)cc1` [Compound 194], the concentration for half-maximal inhibition (IC50) is 14.2 nM at human PRMT1 and 15.3 nM against human PRMT6.

In the case of `CN(CCN)Cc1c[nH]nc1-c1cc(C#N)ccc1Cl` [Compound 147], the IC50 came to 2860 nM against human PRMT1 and 53.6 nM on human PRMT6.

For `CNCCN(C)Cc1cnn(C2CC2)c1-c1ccc(F)cc1` [Compound 14], the IC50 against human PRMT1 is 123 nM; against human PRMT6, 27.7 nM.

As to `Cc1ccccc1-c1n[nH]cc1CN(C)CCN` [Compound 161], the IC50 against human PRMT1 is 187 nM; on human PRMT6, 96.5 nM.

Consider `CN(CCN)Cc1c[nH]nc1-c1ccc(C(F)(F)F)cc1F` [Compound 148], for which the IC50 against human PRMT1 is 121 nM; against human PRMT6, 68.2 nM.

For the compound `CNCCN(C)Cc1cn(C)nc1-c1ccc(OC(C)C)c(Cl)c1` [Compound 206], the IC50 at human PRMT1 was found to be 7.07 nM; against human PRMT6 it was 21.4 nM.

Take `CNCCN(C)Cc1cn[nH]c1-c1ccc(C#N)cc1` [Compound 17]: the IC50 against human PRMT1 amounted to 13.8 nM; at human PRMT6, 12.8 nM.

On to `CNCCN(C)Cc1cn(C)nc1-c1ccc(Oc2ccccc2)cc1` [Compound 207], for which the IC50 was determined as 6.16 nM at human PRMT1 and 3.3 nM against human PRMT6.

For `CNCCN(C)Cc1n[nH]cc1-c1ccc(OC(C)C)c(F)c1` [Compound 210], the values for the IC50 on human PRMT1 and against human PRMT6 were 8.79 nM and 16.1 nM, respectively.

`CC(C)Oc1ccc(-c2nn(C)cc2CN(C)CCN)cc1` [Compound 176]: the IC50 against human PRMT1 is 11.6 nM; against human PRMT6, 67.3 nM.

As for `C=CCn1ncc(CN(C)CCNC)c1-c1ccc(OC(C)C)cc1` [Compound 219], the values for the IC50 against human PRMT1 and on human PRMT6 were 18.4 nM and 30.8 nM, respectively.

`CN(CCN)Cc1c[nH]nc1-c1ccc2c(c1)N(C)C(=O)CO2` [Compound 196]: the IC50 at human PRMT1 worked out at 210 nM; on human PRMT6, 28.7 nM.

Regarding `CN(CCN)Cc1c[nH]nc1-c1ccc(OCCCO)cc1` [Compound 195], the figures for the IC50 on human PRMT1 and against human PRMT6 were 11.4 nM and 9.24 nM, respectively.

As for `COCCCOc1ccc(-c2n[nH]cc2CN(C)CCN)cc1` [Compound 179], the concentration for half-maximal inhibition (IC50) amounted to 17.3 nM against human PRMT1 and 13.4 nM against human PRMT6.

`CNCCN(C)Cc1c[nH]nc1-c1ccc(OCCCOC)c(Cl)c1` [Compound 228]: the IC50 was 5.55 nM against human PRMT1 and 8.22 nM against human PRMT6.

As to `CNCCN(C)Cc1cn(C2CCOC2)nc1-c1ccc(OC(C)C)cc1` (stereo not shown) [Compound 215], the figures for the 50% inhibitory concentration (IC50) at human PRMT1 and at human PRMT6 were 82.2 nM and 323 nM, respectively.

Take `COc1ccc(-c2n[nH]cc2CN(C)CCN)c(C)c1` [Compound 155]: the half-inhibitory concentration (IC50) is 59.9 nM against human PRMT1 and 22.3 nM on human PRMT6.

For the compound `CC(C)CN1C(=O)COc2ccc(-c3n[nH]cc3CN(C)CCN)cc21` [Compound 191], the IC50 on human PRMT1 amounted to 655 nM; on human PRMT6, 435 nM.

Consider `CN(CCN)Cc1c[nH]nc1-c1ccc(OCCN2CCOCC2)cc1` [Compound 172], for which the IC50 against human PRMT1 amounted to 227 nM; against human PRMT6, 26.4 nM.

With `COc1ccc(-c2n[nH]cc2CN(C)CCN)cc1` [Compound 153], the IC50 on human PRMT1 stood at 21.8 nM; against human PRMT6, 11.6 nM.

Consider `CN(CCN)Cc1c[nH]nc1-c1ccc(Oc2ccccc2)c(C(=O)N(C)C)c1` [Compound 226], for which the IC50 against human PRMT1 worked out at 26.8 nM; against human PRMT6, 13.8 nM.

On to `CN(CCN)Cc1c[nH]nc1-c1cc(Cl)ccc1F` [Compound 156], for which the 50% inhibitory concentration (IC50) against human PRMT1 came out at 243 nM; against human PRMT6 it was 43.1 nM.

Regarding `Cc1ccc(C#N)cc1-c1n[nH]cc1CN(C)CCN` [Compound 158], the figures for the concentration for half-maximal inhibition (IC50) at human PRMT1 and against human PRMT6 were 2330 nM and 115 nM, respectively.

For the compound `Cc1cc(F)ccc1-c1n[nH]cc1CN(C)CCN` [Compound 152], the IC50 against human PRMT1 was found to be 47.2 nM; against human PRMT6 it was 22.7 nM.

Turning to `CC(C)Oc1cc(-c2n[nH]cc2CN(C)CCN)ccc1F` [Compound 188], the IC50 on human PRMT1 stood at 163 nM; against human PRMT6 it was 37.4 nM.

With `NCCN(CCO)Cc1c[nH]nc1-c1ccc(F)cc1` [Compound 171], the IC50 on human PRMT1 stood at 929 nM; at human PRMT6, 2420 nM.

As for `CNCCN(C)Cc1cn[nH]c1-c1cc(F)cc(F)c1` [Compound 18], the figures for the IC50 against human PRMT1 and on human PRMT6 were 36.2 nM and 13.6 nM, respectively.

For `CN(CCN)Cc1n[nH]cc1-c1ccc(Oc2ccccc2)cc1` [Compound 203], the IC50 on human PRMT1 was 4.28 nM; at human PRMT6, 2.42 nM.

On to `CN(CCN)Cc1c[nH]nc1-c1ccc(Oc2cccc(F)c2)cc1` [Compound 205], for which the half-inhibitory concentration (IC50) on human PRMT1 amounted to 2.44 nM; against human PRMT6 it was 1.53 nM.

Turning to `CC(C)Oc1ccc(-c2c(CN(C)CCN)cnn2C)cc1` [Compound 177], the IC50 at human PRMT1 is 10 nM; against human PRMT6 it was 34.2 nM.

In the case of `CCOC(=O)c1cccc(-c2n[nH]cc2CN(C)CCN)c1` [Compound 150], the IC50 against human PRMT1 is 71.5 nM; against human PRMT6, 29 nM.

As for `CN(CCN)Cc1c[nH]nc1-c1ccc(Oc2ccc(F)cc2)cc1` [Compound 225, N^1-((3-(4-(4-fluorophenoxy)phenyl)-1H-pyrazol-4-yl)methyl)-N^1-methylethane-1,2-diamine], the figures for the IC50 against human PRMT1 and against human PRMT6 were 3.19 nM and 1.33 nM, respectively.

With `CN(CCN)Cc1c[nH]nc1-c1ccc2c(c1)NC(=O)CO2` [Compound 173], the IC50 amounted to 167 nM against human PRMT1 and 14.9 nM against human PRMT6.

On to `Cc1cc(-c2n[nH]cc2CN(C)CCN)cc(C)c1OC(C)C` [Compound 199, N^1-((3-(4-isopropoxy-3,5-dimethylphenyl)-1H-pyrazol-4-yl)methyl)-N^1-methylethane-1,2-diamine], for which the IC50 against human PRMT1 came to 15.1 nM; against human PRMT6 it was 103 nM.

As to `CNCCN(C)Cc1cn(C2CCCC2)nc1-c1ccc(OC(C)C)cc1` [Compound 214], the 50% inhibitory concentration (IC50) against human PRMT1 came to 51.9 nM; against human PRMT6, 124 nM.

Regarding `Cc1ccc(-c2n[nH]cc2CN(C)CCN)cc1` [Compound 162], the IC50 is 17 nM against human PRMT1 and 7.71 nM against human PRMT6.

Turning to `CNCCN(C)Cc1n[nH]cc1-c1ccc(OC(C)C)c(Cl)c1` [Compound 212], the half-maximal inhibitory concentration (IC50) at human PRMT1 was found to be 6.46 nM; against human PRMT6 it was 9.07 nM.

Regarding `CC(C)CN(C)C(=O)c1ccc(-c2n[nH]cc2CN(C)CCN)cc1` [Compound 164], the concentration for half-maximal inhibition (IC50) against human PRMT1 was 107 nM; against human PRMT6, 41.8 nM.

Turning to `CC(C)Oc1cccc(-c2n[nH]cc2CN(C)CCN)c1` [Compound 187], the IC50 at human PRMT1 was 146 nM; on human PRMT6, 77.6 nM.

Consider `CC(C)CN1C(=O)COc2cc(-c3n[nH]cc3CN(C)CCN)ccc21` [Compound 193], for which the IC50 against human PRMT1 is 63.4 nM; at human PRMT6, 247 nM.

With `CNCCN(C)Cc1cn(C(C)C)nc1-c1ccc(F)cc1` [Compound 15], the 50% inhibitory concentration (IC50) turned out to be 4380 nM on human PRMT1 and 526 nM at human PRMT6.

With `CNCCN(C)Cc1cnn(C)c1-c1ccc(Oc2ccccc2)cc1` [Compound 208], the IC50 against human PRMT1 amounted to 4.16 nM; at human PRMT6 it was 2.93 nM.

For the compound `CN(CCN)Cc1c[nH]nc1-c1ccc2c(c1)OCC(=O)N2C` [Compound 192], the figures for the half-inhibitory concentration (IC50) on human PRMT1 and against human PRMT6 were 121 nM and 34.6 nM, respectively.

In the case of `CNCCN(C)Cc1cn(C2CC2)nc1-c1ccc(F)cc1` [Compound 13], the IC50 against human PRMT1 came to 1500 nM; at human PRMT6, 271 nM.
